Tests used:
Type in all cases: cell-based, human
malignant cell lines = assay: Proliferation of malignant cell lines over seven days in culture; parameters: effect of increased dose on proliferation of malignant cell lines: dose or concentration left out as unconfirmed
Procedure: A number of cell lines representing different malignancies were grown in culture for seven days, and HXP peptide or the control peptide CXP were added to a final concentration of 20 μg/ml on day 3. The bars represent the fold increase of each cell line over the seven days; the empty, dashed bars indicate the CXP peptide treated cells, whilst the solid bars indicate the addition of HXP peptide. Error bars represent the standard error the mean, and n is the number of experiments performed. The cell lines used were: AML—KG1a; Bladder—HT; Breast—SKBR3; Cervical—HeLa; Colon—Colo41; Gastric—MKN-45; Large cell lung cancer—MES; Melanoma—DX3; Ovarian—1847; Pancreatic—Panc-Tu1; Prostate—LNCAP; Renal—HT1376; Small cell lung cancer—NCI-h510A. The change in the expression of the HOX genes expressed by each cell line was assessed by RT-PCR on RNA extracted from the cells at the end of seven days. ‘HOX gene inactivated’ means that the level of expression of each of the listed HOX genes was at least five fold lower in the HXP peptide treated cells compared to the control. *Analysis not yet complete.
A number of cell lines representing different malignancies were grown in culture for seven days, and HXP peptide or the control peptide CXP were added to a final concentration of 200 μg/ml on day 3. The bars represent the fold increase of each cell line over the seven days; the empty, dashed bars indicate the CXP peptide treated cells, whilst the solid bars indicate the addition of HXP peptide. Error bars represent the standard error the mean, and n is the number of experiments performed. The cell lines used were: Bladder—HT; Cervical—HeLa; Melenoma—DX3; Pancreatic—Panc-Tu1.
Solid tumour cell lines (Cancer Research UK) were seeded at 4×10^4 cells/ml, in a liquid culture system made of appropriate medium (see table, Sigma-Aldrich, UK) supplemented with 10% FCS (Sigma Aldrich) and penstrep (1% Sigma). All cell lines were grown with HXP peptide (as in Example 3, 20 μg/ml or 200 μg/ml) or control peptide CXP (20 μg/ml or 200 μg/ml).
KG1a, KG1, HL60 and U937 cell lines (EACC, UK) were seeded at 5×10^4 cells/ml, in a liquid culture system made of RPMI-1640 medium (Life Technologies, UK) supplemented with 10% FCS (Sigma Aldrich) and gentamicin (50 μg/ml Life Technologies) in triplicates. All cell lines were grown with HXP peptide peptide (20 μg/ml) or control peptide (20 μg/ml).
Cell lines were cultured for various time points at 37° C., 5% CO2 in humidified atmosphere and enumerated at various time points.

[1] = tested on: KG1a, HL60 and U937 leukaemic cell lines; assay: Growth of leukaemic cell lines over 48 hours (Example 3); conditions: 20 μg/ml
Procedure: KG1a, HL60 and U937 cell lines were seeded as described in Example 1.
All cell lines were grown with HXP peptide (20 μg/ml) or CXP (20 μg/ml). Cell lines were cultured for various time points at 37° C., 5% CO2 in humidified atmosphere and enumerated at various time points.

CD133+ cells = assay: Cell cycle status of CD133+ cells (G0-G1)
Procedure: Cells to be investigated were harvested and washed in PBS at 400 g for 10 min. Pelleted cells were then fixed in ice-cold 70% ethanol. Fixed cells were subsequently washed twice in PBS (600 g; 10 min) and incubated in 100 μl of ribonuclease (100 μg/ml; Sigma Aldrich) for 5 min (room temperature) prior to addition of 400 μl of propidium iodide (50 μg/ml; Sigma Aldrich) and 30 minutes incubation (37° C.). Cells were then analysed for cell cycle status on FACScan flow cytometer (Becton Dickinson, USA) and using WinMDI and Cylchred softwares.
CD133+ cells (another name for AC133+ cells) were seeded in duplicate at 4×10^4 cells/ml in IMDM (Life Technologies), 10% FCS (Sigma Aldrich) and gentamycin (50 μg/ml Life Technologies) and Thrombopoietin (TPO) 10 ng/ml, Flt3-Ligand (FL) 50 ng/ml & c-KitL (K) 20 ng/ml), all obtained from R and D systems Ltd., UK. (Forraz et al., 2002). The HXP peptide (N-term: WYPWMKKHHRQIKIWFQNRRMKWKK: C-term; Eurogentec, Belgium) and control CXP peptide (N-term: WCCLADRHGRQIKIWFQNRRMKWKK: C-term; Eurogentec, Belgium) were added to culture medium at a concentration of 20 μg/ml. To withdraw peptides from culture, cells were washed twice in IMDM or RPMI and reseeded at prewash cell densities. Primary cells were cultured for 3 weeks at 37° C., 5% CO2 in humidified atmosphere and enumerated by a […] exclusion method with a heamocytometer.

[2] = tested on: KG1a, HL60 and U937 leukaemic cell lines; assay: RT-PCR of HOX/PBX target genes in leukaemic cell lines (Example 3)
Procedure: Total RNA was isolated from liquid nitrogen snap-frozen cells using RNeasy Mini Kit protocol (Qiagen, Crawley, UK). 50 μl reverse transcription reactions using 1 μg of RNA per reaction heated at 75° C. cDNA with 1 μg of oligo-dT for 10 mins. Samples were cooled on ice and mixed with 200 units of M-MLV reverse transcriptase (Promega, Southampton, UK) in its associated buffer, 400 μM of dNTPs (Promega), and 40 units of RNAseout (Invitrogen, Paisley, UK). Samples were then incubated at 37° C. for one hour and finally heated at 75° C. for 5 mins. PCR reactions (35 cycles, 94° C. 30 sec, 55° C. 30 sec, 72° C. 1 min) were carried out in a 20 μl reaction using JumpStart ReadyMix REDTaq DNA polymerase (Sigma-Aldrich) using an identical amount of cDNA per reaction with 1 μM of forward and reverse primers.

[3] = tested on: leukaemic cell lines KG1a, KG1, HL60 and U937; assay: Leukaemic cell lines culture, trypan blue cell count (Example 1); conditions: 20 μg/ml
Procedure: KG1a, KG1, HL60 and U937 cell lines were obtained from the ATCC (catalogue Nos. CCL-246.1, CCL-246, CCL-240 and CRL-1593.2, respectively.
Cell lines were seeded at 1-5×10^5 cells/ml in liquid culture system made of RPMI-1640 medium (Life Technologies, UK) supplemented with Foetal Calf Serum (10% Sigma Aldrich) and gentamycin (50 μg/ml, Life Technologies) and at least in duplicate. When required the HXP peptide was added to the medium (20 μg/ml). Cell lines were cultured for up to 7 days at 37° C., 5% CO2 in humidified atmosphere. Cultured cells were then counted at various time points using trypan blue exclusion method described above.

[4] = 20 μg/ml added on day 3, seven days culture

WYPWMKKHHRQIKIWFQNRRMKWKK [HXP peptide]
fold increase in cell number after 7 days in culture, in some cases (malignant cell lines; 20 μg/ml): less than 1
proliferation of cells derived from colorectal, pancreatic, small cell lung, bladder, prostate, cervical, ovarian and gastric cancers (malignant cell lines; [4]): sufficient to block the proliferation
proliferation of cells derived from renal, breast and non-small cell lung cancer (malignant cell lines; [4]): no significant affect
effect of increased dose on proliferation of malignant cell lines (malignant cell lines; ten fold increase in dose): complete ablation of some malignancies
cell growth inhibition on leukaemic cell lines [1]: potent cell growth inhibition
time at which cell growth inhibition is apparent [1]: two
proportion of cells in phase G0-G1 upon withdrawing HXP peptide (CD133+ cells; compared to the HXP peptide-treated group): lower proportion of cells remained in phase G0-G1
more cells in phase G0-G1 of the cell cycle than the control group (CD133+ cells; day 18 of culture, vs CXP4 treated cells, p<0.05): 9.9%
MMP19 expression ([2]; KG1a): down-regulated
MMP1 expression ([2]; KG1a and U937 cells): down-regulated
CD38 gene expression ([2]; KG1a cell line): up-regulation
CD133, CD34, HOXB4, B8 and A9 gene expression ([2]; KG1a cell line): down-regulation
expression of the other genes examined ([2]; KG1a, HL60, U937, except CDC25, MMP1, MMP19 as stated): did not alter
CD38 gene expression ([2]; U937 and HL60 cell lines): up-regulated
HOXB4 and A9 gene expression ([2]; U937 and HL60 cell lines): down-regulation
HOXB8 gene expression ([2]; U937 and HL60 cell lines): unchanged
CDC25 expression ([2]; U937 cells): down-regulated
N-RAS oncogene expression ([2]; all of the cell lines (KG1a, HL60, U937)): completely down-regulated
inhibition of leukaemic cell lines (cell growth) [3]: inhibits

Source: patent US7728105B2, “Peptides impairing PBX dependent gene regulation” (St. George's Hospital Medical School, priority 2002, dated 2010)
